Data set [1] is described as follows: Cytotoxicity in African green monkey Vero cells assessed as reduction in cell viability incubated for 72 hrs by MTT assay. The class given is cell-based. The conditions noted are these: chlorocebus sabaeus.
Data set [2] in a line: Selectivity index, ratio of CC50 for African green monkey Vero cells to MIC for antimycobacterial activity against Mycobacterium tuberculosis H37Ra ATCC 25197. The format is toxicity. The conditions noted are these: read-out: Selectivity Index.
Data set [3] relates to Mycobacterium tuberculosis. Kind of data set: Antimycobacterial activity against Mycobacterium tuberculosis H37Ra ATCC 25197 assessed as inhibition of bacterial cell growth incubated for 7 days by resazurin microtiter assay. The format is functional. The conditions noted are these: H37Ra ATCC 25197, 168 h.
The test system of data set [4] is Mycobacterium tuberculosis. Put plainly: Antimycobacterial activity against Mycobacterium tuberculosis H37Rv ATCC 27294 assessed as inhibition of bacterial cell growth incubated for 7 days by resazurin microtiter assay. The format is functional. The conditions noted are these: H37Rv ATCC 27294, 168 h. (Alamar Blue is a resazurin reagent that responds to reducing activity.)

In brackets after ≈: the same amount, converted by molar mass.

The term CC50 denotes the concentration giving 50% cytotoxicity. Broadly, the MIC is the lowest concentration that inhibits growth of the organism.

Take `Cc1cccc(C(=O)/C=C2\Nc3ccccc3OC2=O)c1`: the CC50 at 72 h in data set [1] is > 1790 µM. In data set [2], the selectivity ratio was > 125. The MIC in data set [3] amounted to 14 µM (≈ 3.91 µg/mL).
In the case of `COC(=O)/C=C1\Nc2cc3ccccc3cc2OC1=O`, the minimum inhibitory concentration (MIC) in data set [3] is > 238 µM.
`O=C1Oc2ccccc2N/C1=C\C(=O)c1c[nH]c2ccccc12`: the MIC in data set [4] stood at 3.3 µM (≈ 1 µg/mL); in data set [3], 6.5 µM (≈ 1.98 µg/mL). Besides, in data set [1], the CC50 at 72 h was > 1640 µM. For the same compound, in data set [2], the selectivity ratio was > 250.
`COC(=O)/C=C1\Nc2ccccc2OC1O` (stereo unspecified): the MIC in data set [3] was determined as 289 µM (≈ 63.9 µg/mL).
As to `O=C1/C(=C/c2ccccc2)Oc2ccccc2N1Cc1ccccc1`, the MIC in data set [3] was determined as 196 µM (≈ 64.2 µg/mL).
Take `Cc1ccc(C(=O)/C=C2\Nc3ccccc3OC2=O)cc1`: the CC50 at 72 h in data set [1] worked out at 1650 µM. The selectivity ratio in data set [2] was found to be 115. Also, the MIC in data set [3] came to 14 µM (≈ 3.91 µg/mL).
Consider `O=C1Oc2ccccc2N/C1=C\C(=O)c1cccs1`, for which the MIC was 14.7 µM (≈ 3.99 µg/mL) in data set [4] and 7.3 µM (≈ 1.98 µg/mL) in data set [3]. In data set [1], the CC50 at 72 h is > 1840 µM. In addition, in data set [2], the selectivity ratio is > 250.
With `COC(=O)CC1Nc2ccccc2OC1=O` (stereo unspecified), the CC50 at 72 h in data set [1] worked out at 1550 µM. Further, the selectivity ratio in data set [2] is 43. Further, the MIC in data set [3] came to 36 µM (≈ 7.96 µg/mL).
On to `COC(=O)/C=C1\Nc2ccccc2OC1=O`, for which the MIC in data set [4] came out at 4.5 µM (≈ 0.986 µg/mL); in data set [3], 18 µM (≈ 3.95 µg/mL). The CC50 at 72 h in data set [1] is > 2280 µM. In addition, in data set [2], the selectivity ratio is > 125.
Regarding `O=C(NNC(=O)c1ccncc1)C(=O)Nc1ccccc1O`, the results for the MIC in data set [4] and in data set [3] were 3.3 µM (≈ 0.991 µg/mL) and 0.42 µM (≈ 0.126 µg/mL), respectively. Also, the CC50 at 72 h in data set [1] was 1410 µM. The selectivity ratio in data set [2] turned out to be 3380.
For `Cc1ccccc1C(=O)/C=C1\Nc2ccccc2OC1=O`, the CC50 at 72 h in data set [1] was > 1790 µM. The selectivity ratio in data set [2] is > 125. Moreover, the MIC in data set [3] was 14 µM (≈ 3.91 µg/mL).
As for `COC(=O)/C=C1\Nc2cc(-c3ccccc3)ccc2OC1=O`, the MIC in data set [3] turned out to be 145 µM (≈ 42.8 µg/mL).
Regarding `COC(=O)/C=C1\Nc2ccc(Cl)cc2OC1=O`, the MIC is 3.9 µM (≈ 0.989 µg/mL) in data set [4] and 7.9 µM (≈ 2 µg/mL) in data set [3]. In addition, the CC50 at 72 h in data set [1] worked out at 1600 µM. Further, the selectivity ratio in data set [2] was determined as 202.
On to `COC(=O)/C=C1\Nc2cc(Cl)ccc2OC1=O`, for which the MIC in data set [4] came to 31 µM (≈ 7.86 µg/mL); in data set [3], 63 µM (≈ 16 µg/mL). Besides, in data set [1], the CC50 at 72 h was found to be 1630 µM. In addition, the selectivity ratio in data set [2] came to 26.
Regarding `O=C1Oc2ccccc2N/C1=C\C(=O)c1cccc(Cl)c1`, the CC50 at 72 h in data set [1] stood at 1610 µM. Further, the selectivity ratio in data set [2] amounted to 120. In addition, the minimal inhibitory concentration (MIC) in data set [3] is 13 µM (≈ 3.9 µg/mL).
On the same counts, the results for `O=C1Oc2ccccc2N/C1=C\C(=O)c1ccc(Cl)cc1` are 1250 µM, 94 and 13 µM (≈ 3.9 µg/mL).
Consider `O=C(NNC(=O)c1ccncc1)C(=O)Nc1cc(Cl)ccc1O`, for which the MIC worked out at 3.1 µM (≈ 1.04 µg/mL) in data set [4] and 0.37 µM (≈ 0.124 µg/mL) in data set [3]. Besides, the CC50 at 72 h in data set [1] came to 1200 µM. In addition, the selectivity ratio in data set [2] came out at 3320.
As for `O=C1/C(=C/c2ccccc2Cl)Oc2ccccc2N1Cc1ccccc1`, in data set [3], the MIC was 177 µM (≈ 64 µg/mL).
In the case of `CN1C(=O)/C(=C/c2ccccc2)Oc2ccccc21`, in data set [3], the MIC stood at 127 µM (≈ 31.9 µg/mL).
As to `O=C1Oc2ccccc2N/C1=C\C(=O)c1ccccc1`, in data set [1], the cytotoxic concentration (CC50) at 72 h is > 942 µM. Further, in data set [2], the selectivity ratio was > 62. The MIC in data set [3] came out at 15 µM (≈ 3.98 µg/mL).
As for `O=C1Oc2ccccc2N/C1=C\C(=O)c1ccncc1`, the CC50 at 72 h in data set [1] is > 1880 µM. In addition, in data set [2], the selectivity ratio is > 125. Besides, the MIC in data set [3] turned out to be 15 µM (≈ 3.99 µg/mL).
As to `O=C(NNC(=O)c1ccncc1)C(=O)Nc1ccc(Cl)cc1O`, the MIC is 3.1 µM (≈ 1.04 µg/mL) in data set [4] and 0.75 µM (≈ 0.251 µg/mL) in data set [3]. Further, the half-maximal cytotoxic concentration (CC50) at 72 h in data set [1] was found to be 1160 µM. Also, the selectivity ratio in data set [2] turned out to be 1560.
As to `O=C1Nc2ccccc2O/C1=C\c1ccccc1`, in data set [3], the MIC stood at 270 µM (≈ 64.1 µg/mL).
With `NNC(=O)c1ccncc1` [ISONIAZID], the MIC was 1.8 µM (≈ 0.247 µg/mL) in data set [4] and 0.91 µM (≈ 0.125 µg/mL) in data set [3]. Also, in data set [1], the CC50 at 72 h was > 7300 µM. The selectivity ratio in data set [2] is > 8000.
As for `CN1C(=O)/C(=C/c2ccccc2Cl)Oc2ccccc21`, in data set [3], the minimal inhibitory concentration (MIC) is 224 µM (≈ 64 µg/mL).
On to `O=C1Oc2ccccc2N/C1=C\C(=O)c1ccccc1Cl`, for which the CC50 at 72 h in data set [1] stood at 1570 µM. Also, the selectivity ratio in data set [2] stood at 118. Moreover, the MIC in data set [3] was found to be 13 µM (≈ 3.9 µg/mL).
For the compound `O=C1Oc2ccccc2N/C1=C\C(=O)c1ccc(-c2ccccc2)cc1`, the CC50 at 72 h in data set [1] was > 366 µM. Further, the selectivity ratio in data set [2] is > 30. Further, the MIC in data set [3] is 12 µM (≈ 4.1 µg/mL).
On to `O=C1Oc2ccccc2N/C1=C\C(=O)N1CCOCC1`, for which the MIC in data set [4] and in data set [3] was 7.3 µM (≈ 2 µg/mL) throughout. Besides, the CC50 at 72 h in data set [1] was 1140 µM. The selectivity ratio in data set [2] came out at 155.
For `COC(=O)/C=C1/Oc2ccccc2NC1=O`, in data set [3], the MIC was determined as 291 µM (≈ 63.8 µg/mL).
As to `COC(=O)/C=C1\Nc2ncccc2OC1=O`, the MIC in data set [3] is > 217 µM.
Consider `O=C1Nc2ccccc2O/C1=C\c1ccccc1Cl`, for which the MIC in data set [3] was determined as 238 µM (≈ 64.7 µg/mL).

The values are drawn from ChEMBL document CHEMBL4433266, “Design, synthesis and antimycobacterial activity of benzoxazinone derivatives and open-ring analogues: Preliminary data and computational analysis” (Bioorg Med Chem Lett, 2019).
